# Results as given in PMC10991509, “A phase I study of ATR inhibitor gartisertib (M4344) as a single agent and in combination with carboplatin in patients with advanced solid tumours” (British Journal of Cancer, 2024).
# Where two headings read alike, the source gives them in different places.
# What was measured:
# ɣ-H2AX = ɣ-H2AX in ex vivo-stimulated CD45+ lymphocytes; parameters: species or system human; conditions: 350 mg QD, n = 3, highest tested dose; 3 h post first dose
# Description: Exploratory objectives were to assess ATR inhibition and DNA damage by measuring phosphorylation of the Ser-139 residue of the histone variant H2AX (ɣ-H2AX) post-treatment in peripheral blood mononuclear cells (cohorts A2 and C), describe the mutational landscape and its relationship to BOR in patients with selected biomarkers (cohort C) and to determine changes in allele frequencies in mutations of interest and their association with clinical benefit (molecular response; cohorts A2 and C). Further details on the definitions of LOF mutations and methods of biomarker collection are described in the Supplementary Materials.
# To determine H2AX phosphorylation (ɣ-H2AX) in lymphocytes, 100 µL of whole blood was stimulated with 62 µM 4NQO (4-nitroquinoline N-oxide, Sigma, UK) for 1 hour at 37°C. In parallel, 100 µL of whole blood was incubated with 10% DMSO (dimethyl sulfoxide, Sigma, UK) as an unstimulated control sample. The samples were subsequently treated (for 10 minutes at 37°C) with BD Lyse & Fix Solution (Becton Dickinson, USA) and the whole blood cells were permeabilized with ice-cold methanol (90% final concentration) for 30 minutes on ice. […] Cells were then analyzed using a FacsCanto II (Becton Dickinson, USA) collecting 10,000 events. […]
# UGT1A1 [1] = target: UGT1A1 (Canis lupus familiaris, UniProt A0A8I3S535); test: UGT1A1 inhibition in dog liver microsomes
# [2] = Plasma pharmacokinetics of gartisertib; assay type: in vivo, human; conditions: for clearance: read-out: drug clearance
# Description: The secondary objectives for cohorts A, A2, and B1 were to assess antitumour activity and PK. Endpoints associated with antitumour activity included confirmed best overall response (BOR), according to RECIST v1.1. PK endpoints included PK parameter estimates, derived from plasma concentration-time data. Please see the Supplementary Materials for details on further PK endpoints and assessments as well as the PK assessment schedule (Supplementary Table S2).
# Categorical variables (such as incidence of a TEAE) were summarised using frequency counts and percentages, along with 2-sided exact Clopper–Pearson 95% confidence intervals (CIs). TEAEs observed were summarised by System Organ Class and Preferred Term according to the Medical Dictionary for Regulatory Activities (versions 23.0 and 24.0). Standard non-compartmental methods were used to determine PK parameters.
# Blood samples were collected according to the Schedule of Assessments in order to measure gartisertib (and metabolites where appropriate) plasma concentrations. PK parameters included maximum observed plasma concentration (Cmax), time to reach maximum observed plasma concentration (Tmax), terminal half-life, area under the concentration–time curve (AUC) from time zero extrapolated to infinity, apparent oral clearance, and apparent volume of distribution during the terminal phase as well as Cmax and AUC accumulation ratios. Please see Table S2 for the PK assessment schedule.
# UGT1A1 [3] = target: T1, UGT1A1 (Rattus norvegicus, UniProt Q64550); test: UGT1A1 inhibition in rat liver microsomes; assay type: in vitro ADME; conditions: value (standard error)
# T1 construct: from tissue; host or cells: rat liver microsomes
# T1 sequence (Q64550 30-535): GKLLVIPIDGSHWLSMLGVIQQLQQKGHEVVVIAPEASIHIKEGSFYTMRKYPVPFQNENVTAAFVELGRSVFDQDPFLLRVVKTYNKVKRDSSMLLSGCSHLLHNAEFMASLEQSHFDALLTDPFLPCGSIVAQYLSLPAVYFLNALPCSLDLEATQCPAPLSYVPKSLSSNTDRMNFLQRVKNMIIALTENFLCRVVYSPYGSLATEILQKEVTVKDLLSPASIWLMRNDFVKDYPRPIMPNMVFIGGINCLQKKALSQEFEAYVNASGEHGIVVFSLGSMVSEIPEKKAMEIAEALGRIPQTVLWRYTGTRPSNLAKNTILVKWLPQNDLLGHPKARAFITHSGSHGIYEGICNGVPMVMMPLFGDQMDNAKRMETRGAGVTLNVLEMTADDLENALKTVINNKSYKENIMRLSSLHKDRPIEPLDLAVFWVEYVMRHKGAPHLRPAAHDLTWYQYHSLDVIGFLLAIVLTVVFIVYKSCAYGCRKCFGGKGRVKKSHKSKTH
# UGT1A1 [4] = target: T2, UGT1A1 (Homo sapiens, UniProt P22309); test: UGT1A1 inhibition in human liver microsomes; assay type: in vitro ADME; conditions: value (standard error)
# T2 construct: from tissue; host or cells: human liver microsomes
# T2 sequence (P22309 26-533): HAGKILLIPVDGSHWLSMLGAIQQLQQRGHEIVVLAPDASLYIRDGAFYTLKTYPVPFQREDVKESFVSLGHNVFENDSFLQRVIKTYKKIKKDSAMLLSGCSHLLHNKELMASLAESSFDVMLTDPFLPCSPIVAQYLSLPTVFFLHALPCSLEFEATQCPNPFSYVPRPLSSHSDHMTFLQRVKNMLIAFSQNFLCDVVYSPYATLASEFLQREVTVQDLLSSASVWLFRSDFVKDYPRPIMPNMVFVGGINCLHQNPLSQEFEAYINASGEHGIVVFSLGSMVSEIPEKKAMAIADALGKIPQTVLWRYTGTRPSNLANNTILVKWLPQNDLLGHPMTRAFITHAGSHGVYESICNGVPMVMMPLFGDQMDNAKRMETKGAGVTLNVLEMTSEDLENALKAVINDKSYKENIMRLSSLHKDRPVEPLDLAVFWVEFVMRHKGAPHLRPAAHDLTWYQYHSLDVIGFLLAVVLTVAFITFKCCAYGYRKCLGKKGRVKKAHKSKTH
# UGT1A1 (Canis lupus familiaris, UniProt A0A8I3S535), sequence (A0A8I3S535 entry or part of it): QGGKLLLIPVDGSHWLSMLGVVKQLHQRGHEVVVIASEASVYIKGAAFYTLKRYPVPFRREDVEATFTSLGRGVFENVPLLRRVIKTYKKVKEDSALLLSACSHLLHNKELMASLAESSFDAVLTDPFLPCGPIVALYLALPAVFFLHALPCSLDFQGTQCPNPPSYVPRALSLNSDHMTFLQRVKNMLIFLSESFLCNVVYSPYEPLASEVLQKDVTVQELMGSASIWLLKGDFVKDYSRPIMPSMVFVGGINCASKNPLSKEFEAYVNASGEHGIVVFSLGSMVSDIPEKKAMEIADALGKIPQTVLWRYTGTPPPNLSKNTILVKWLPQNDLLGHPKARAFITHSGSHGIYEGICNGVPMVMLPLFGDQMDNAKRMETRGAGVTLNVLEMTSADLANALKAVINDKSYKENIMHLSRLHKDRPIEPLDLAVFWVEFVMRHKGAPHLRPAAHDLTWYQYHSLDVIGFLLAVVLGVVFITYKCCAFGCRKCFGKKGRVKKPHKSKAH
compound,measurement,setting,value
"Nc1nn2cc(F)cnc2c1C(=O)Nc1cncc(F)c1N1CCC(C(=O)N2CCN(C3COC3)CC2)CC1 [gartisertib, Gartisertib]",target inhibition of ɣ-H2AX,ɣ-H2AX,Complete target inhibition
same,IC50,UGT1A1 [1],> 50 µM
same,accumulation following multiple gartisertib doses,[2]; cohort A,less than 2 fold
same,urinary excretion of gartisertib,[2]; cohort A2,minor route of elimination
same,time median plasma concentrations remained above the lower limit of quantification (1.00 ng/mL),"[2]; cohort A2, 250 mg dose",≤ 24 h
same,time median plasma concentrations remained above the lower limit of quantification (1.00 ng/mL),"[2]; cohort A2, doses other than 250 mg",up to 8 hours
same,accumulation compared with day 1,"[2]; cohort A, 450 mg dose",no accumulation
same,accumulation of AUC0-t at day 8 compared with day 1,"[2]; cohort A, 1200 mg dose group",1.9 fold
same,accumulation of Cmax at day 8 compared with day 1,"[2]; cohort A, 1200 mg dose group",1.6 fold
same,time of peak median plasma gartisertib concentration,"[2]; cohort A, 1200 mg group",4 hours post dose
same,time median gartisertib concentrations remained above the lowest level of quantification (1.00 ng/mL),"[2]; cohort A, 450, 700, 1050 and 1200 mg groups",up to 24 hours post dose
same,exposure (Cmax and AUC) versus dose,"[2]; cohorts A, A2, and B1, high variability",dose-proportional exposure
same,clearance,"[2]; human, plasma, oral, cohort A2, day 1",3450 to 8580 mL/min
same,clearance,"[2]; human, plasma, oral, cohort A2, day 8",3980 to 7070 mL/min
same,half-life,"[2]; human, plasma, oral, cohorts A, A2, and B1, read-out: half-life (t1/2)",2 to 5 h
same,half-life,"[2]; human, plasma, oral, cohort A, four highest dose levels, read-out: geometric mean terminal half-life",2.22 to 4.61 h
same,Vd,"[2]; human, plasma, oral, cohort A, four highest dose levels, read-out: volume of distribution based on the terminal elimination phase following extravascular administration",1480 to 4060 L
same,IC50,UGT1A1 [3],> 50 µM
same,IC50,UGT1A1 [4],8.36 µM
